Source: ChEMBL document CHEMBL1921696, “Synthesis and biological evaluation of salicylate-based compounds as a novel class of methionine aminopeptidase inhibitors” (Bioorg Med Chem Lett, 2011)
pIC50: −log10 of the molar value. ≈ marks a conversion by molar mass, not a printed value.

Experiments:
[1] = Inhibition of Escherichia coli recombinant methionine aminopeptidase expressed in Escherichia coli BL21 (DE3) using MetAMC as substrate in presence of Co(II)
[2] = Inhibition of Escherichia coli recombinant methionine aminopeptidase expressed in Escherichia coli BL21 (DE3) using MetAMC as substrate in presence of Mn(II)
[3] = Inhibition of Escherichia coli recombinant methionine aminopeptidase expressed in Escherichia coli BL21 (DE3) using MetAMC as substrate in presence of Fe(II)
[4] = system: Escherichia coli; test: Antibacterial activity against Escherichia coli AS19 after 10 hrs by fluorescence assay; format: functional, organism-based; settings: AS19, 10 h

| pIC50 [1] | pIC50 [2] | pIC50 [3] | pIC50 [4] | MIC [4] | SMILES |
| --- | --- | --- | --- | --- | --- |
| 4.19 | 4.10 | 4.41 | 3.95 | 100 µg/mL (≈ 454 µM) | O=C(O)c1ccc(-c2cccs2)cc1O |
| 4.09 | 4.04 | 3.96 | 4.14 | 47 µg/mL (≈ 201 µM) | Cc1ccc(-c2ccc(C(=O)O)c(O)c2)s1 |
| 4.06 | 4.20 | 4.14 | 4.47 | 28 µg/mL (≈ 110 µM) | O=C(O)c1ccc(-c2ccc(Cl)s2)cc1O |
| 3.60 | 4.05 | 3.30 | < 3.00 | > 234 µg/mL | COc1cc(-c2cccs2)ccc1C(=O)O |
| 3.59 | 3.80 | 3.57 | 3.26 | 272 µg/mL (≈ 1100 µM) | COc1cc(-c2ccc(C)s2)ccc1C(=O)O |
| 3.60 | 3.80 | < 3.30 | < 3.00 | > 204 µg/mL | O=C(O)c1ccc(-c2cccs2)cc1 |
| 3.60 | 3.84 | 3.57 | < 3.00 | > 222 µg/mL | O=C(O)c1ccc(-c2cccs2)c(F)c1 |
| 3.48 | 3.47 | 3.60 | 3.06 | 306 µg/mL (≈ 1300 µM) | Cc1ccc(-c2ccc(C(=O)O)cc2F)s1 |
| 3.78 | 3.93 | 3.69 | 3.19 | 297 µg/mL (≈ 1160 µM) | O=C(O)c1ccc(-c2ccc(Cl)s2)c(F)c1 |
| 3.93 | 4.01 | 4.52 | 4.29 | 33 µg/mL (≈ 114 µM) | O=C(O)c1ccc(-c2cc(Cl)sc2Cl)cc1O |
| 3.54 | 4.01 | < 3.30 | 3.08 | 521 µg/mL (≈ 1720 µM) | COc1cc(-c2cc(Cl)sc2Cl)ccc1C(=O)O |
| 4.06 | 4.47 | 5.51 | 4.13 | 38 µg/mL (≈ 149 µM) | O=C(O)c1cc(-c2cccs2)c(Cl)cc1O |
| 4.11 | 4.42 | 5.17 | 3.79 | 87 µg/mL (≈ 324 µM) | Cc1ccc(-c2cc(C(=O)O)c(O)cc2Cl)s1 |
| 4.13 | 4.44 | 5.31 | 4.31 | 30 µg/mL (≈ 104 µM) | O=C(O)c1cc(-c2ccc(Cl)s2)c(Cl)cc1O |
| 3.69 | 4.72 | 3.68 | < 3.00 | > 268 µg/mL | COc1cc(Cl)c(-c2cccs2)cc1C(=O)O |
| 4.15 | 4.94 | 3.97 | < 3.00 | > 282 µg/mL | COc1cc(Cl)c(-c2ccc(C)s2)cc1C(=O)O |
| < 3.30 | 4.76 | 3.72 | < 3.00 | > 234 µg/mL | COc1ccc(C(=O)O)cc1-c1cccs1 |
| 3.33 | 4.47 | 3.78 | < 3.00 | > 248 µg/mL | COc1ccc(C(=O)O)cc1-c1ccc(C)s1 |
